Earlier results in paper PMC9516332 (Frontiers in Oncology, 2022).
Like-named read-outs stand apart in the source and are kept apart here.

How the values were obtained:
Settings in all cases: cited from earlier work
[1] = target: panel of 255 wild-type kinases (Homo sapiens, UniProt Q86Z02)
[2] = target: panel of 255 wild-type kinases (Homo sapiens, UniProt Q15208)
[3] = target: panel of 255 wild-type kinases (Homo sapiens, UniProt Q14680)
[4] = target: panel of 255 wild-type kinases (Homo sapiens, UniProt Q05655)
[5] = target: panel of 255 wild-type kinases (Homo sapiens, UniProt P23458)
[6] = target: panel of 255 wild-type kinases (Homo sapiens, UniProt Q07912)
[7] = target: T1, panel of 255 wild-type kinases (Homo sapiens, UniProt Q9UF33)
T1 sequence (Q9UF33 23-1036): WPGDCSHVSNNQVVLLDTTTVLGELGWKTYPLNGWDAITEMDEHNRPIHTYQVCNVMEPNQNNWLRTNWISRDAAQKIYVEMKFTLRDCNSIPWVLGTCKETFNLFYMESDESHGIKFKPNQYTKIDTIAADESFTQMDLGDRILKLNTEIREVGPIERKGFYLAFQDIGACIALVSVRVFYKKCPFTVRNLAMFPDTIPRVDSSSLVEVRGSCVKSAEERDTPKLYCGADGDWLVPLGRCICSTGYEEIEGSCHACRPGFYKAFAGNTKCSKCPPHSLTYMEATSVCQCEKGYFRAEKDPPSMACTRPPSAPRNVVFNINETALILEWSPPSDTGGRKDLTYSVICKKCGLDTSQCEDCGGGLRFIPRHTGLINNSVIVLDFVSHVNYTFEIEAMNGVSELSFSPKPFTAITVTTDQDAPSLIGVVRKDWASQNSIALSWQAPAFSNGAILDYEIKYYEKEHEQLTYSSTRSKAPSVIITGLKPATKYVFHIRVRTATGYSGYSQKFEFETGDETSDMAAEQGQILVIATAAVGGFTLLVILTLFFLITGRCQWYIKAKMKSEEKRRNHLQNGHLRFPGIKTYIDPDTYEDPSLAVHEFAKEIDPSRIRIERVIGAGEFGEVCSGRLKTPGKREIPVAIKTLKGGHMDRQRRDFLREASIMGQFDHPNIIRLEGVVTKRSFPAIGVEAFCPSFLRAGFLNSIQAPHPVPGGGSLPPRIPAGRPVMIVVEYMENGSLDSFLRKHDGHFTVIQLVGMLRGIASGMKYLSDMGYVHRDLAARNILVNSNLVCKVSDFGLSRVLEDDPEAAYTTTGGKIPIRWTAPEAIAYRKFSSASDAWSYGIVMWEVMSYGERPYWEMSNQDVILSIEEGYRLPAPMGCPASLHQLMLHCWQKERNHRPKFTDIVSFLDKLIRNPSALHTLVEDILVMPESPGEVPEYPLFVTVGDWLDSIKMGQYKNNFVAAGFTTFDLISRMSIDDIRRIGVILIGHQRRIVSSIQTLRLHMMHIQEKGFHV

[8] = target: panel of 255 wild-type kinases (Homo sapiens, UniProt P27361)
[9] = target: panel of 255 wild-type kinases (Homo sapiens, UniProt O96017)
[10] = target: T2, panel of 255 wild-type kinases (Homo sapiens, UniProt Q9BXA7)
T2 sequence (Q9BXA7 1-367): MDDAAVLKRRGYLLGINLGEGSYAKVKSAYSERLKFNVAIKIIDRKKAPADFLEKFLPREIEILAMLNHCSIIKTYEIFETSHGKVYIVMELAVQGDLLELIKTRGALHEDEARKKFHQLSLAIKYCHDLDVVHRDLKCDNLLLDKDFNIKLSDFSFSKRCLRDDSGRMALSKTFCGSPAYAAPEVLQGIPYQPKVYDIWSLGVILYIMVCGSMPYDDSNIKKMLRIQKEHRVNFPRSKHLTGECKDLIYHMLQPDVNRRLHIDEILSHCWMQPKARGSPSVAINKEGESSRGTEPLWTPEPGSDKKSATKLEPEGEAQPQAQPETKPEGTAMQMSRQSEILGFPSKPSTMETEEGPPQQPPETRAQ

[11] = target: panel of 255 wild-type kinases (Homo sapiens, UniProt Q15759)
[12] = target: panel of 255 wild-type kinases (Homo sapiens, UniProt P16234)
[13] = kinase HIPK1, 1 µmol/L single concentration, ref DOI: 10.1158/1535-7163.MCT-18-0877
[14] = NDR1, 1 µmol/L single concentration, ref DOI: 10.1158/1535-7163.MCT-18-0877
[15] = MELK, 1 µmol/L single concentration, ref DOI: 10.1158/1535-7163.MCT-18-0877
[16] = kinase PKCδ, 1 µmol/L single concentration, ref DOI: 10.1158/1535-7163.MCT-18-0877
[17] = kinase JAK1, 1 µmol/L single concentration, ref DOI: 10.1158/1535-7163.MCT-18-0877
[18] = ACK kinase assay, 1 µmol/L single concentration, ref DOI: 10.1158/1535-7163.MCT-18-0877
[19] = kinase EPHA6, 1 µmol/L single concentration, ref DOI: 10.1158/1535-7163.MCT-18-0877
[20] = kinase Erk1, 1 µmol/L single concentration, ref DOI: 10.1158/1535-7163.MCT-18-0877
[21] = CHK2 kinase assay, 1 µmol/L single concentration, ref DOI: 10.1158/1535-7163.MCT-18-0877
[22] = kinase TSSK1, 1 µmol/L single concentration, ref DOI: 10.1158/1535-7163.MCT-18-0877
[23] = p38β, 1 µmol/L single concentration, ref DOI: 10.1158/1535-7163.MCT-18-0877
[24] = kinase PDGFRα, 1 µmol/L single concentration, ref DOI: 10.1158/1535-7163.MCT-18-0877
[25] = kinase HIPK1, 1 µmol/L single concentration, ref DOI: 10.1371/journal.pone.0092146
[26] = NDR1, 1 µmol/L single concentration, ref DOI: 10.1371/journal.pone.0092146
[27] = MELK, 1 µmol/L single concentration, ref DOI: 10.1371/journal.pone.0092146
[28] = kinase PKCδ, 1 µmol/L single concentration, ref DOI: 10.1371/journal.pone.0092146
[29] = kinase JAK1, 1 µmol/L single concentration, ref DOI: 10.1371/journal.pone.0092146
[30] = ACK kinase assay, 1 µmol/L single concentration, ref DOI: 10.1371/journal.pone.0092146
[31] = kinase EPHA6, 1 µmol/L single concentration, ref DOI: 10.1371/journal.pone.0092146
[32] = kinase Erk1, 1 µmol/L single concentration, ref DOI: 10.1371/journal.pone.0092146
[33] = CHK2 kinase assay, 1 µmol/L single concentration, ref DOI: 10.1371/journal.pone.0092146
[34] = kinase TSSK1, 1 µmol/L single concentration, ref DOI: 10.1371/journal.pone.0092146
[35] = p38β, 1 µmol/L single concentration, ref DOI: 10.1371/journal.pone.0092146
[36] = kinase PDGFRα, 1 µmol/L single concentration, ref DOI: 10.1371/journal.pone.0092146

Row | Structure (SMILES) | %-inhibition at 1 µmol/L, HIPK1 [1, 13] | %-inhibition, NDR1 [2, 14] | %-inhibition, MELK [3, 15] | %-inhibition at 1 µmol/L, PKCδ [4, 16] | %-inhibition at 1 µmol/L, JAK1 [5, 17] | %-inhibition ACK [6, 18] | %-inhibition at 1 µmol/L, EPHA6 [7, 19] | %-inhibition at 1 µmol/L, Erk1 [8, 20] | %-inhibition CHK2 [9, 21] | %-inhibition at 1 µmol/L, TSSK1 [10, 22] | %-inhibition, p38β [11, 23] | %-inhibition at 1 µmol/L, PDGFRα [12, 24] | other results
1 | CC#CC(=O)N1CCC[C@H]1c1nc(-c2ccc(C(=O)Nc3ccccn3)cc2)c2c(N)nccn12 [acalabrutinib] | -15% | -6.32% | -0.54% | -9% | -13% | 14% | -2.37% | -2.38% | -6% | -7% | -3% | 1.38% | –
2 | CCc1cc2c(cc1N1CCC(N3CCOCC3)CC1)C(C)(C)c1[nH]c3cc(C#N)ccc3c1C2=O [alectinib] | 2.52% | 1.29% | 29% | 1.83% | -10% | 42% | 0.529% | 1.41% | 96% | 22% | 0.144% | 43% | –
3 | COc1cc(N2CCC(N3CCN(C)CC3)CC2)ccc1Nc1ncc(Cl)c(Nc2ccccc2P(C)(C)=O)n1 [brigatinib] | – | – | – | – | – | – | – | – | – | – | – | – | %-inhibition at 1 µmol/L, HIPK1 [1]: 11%; %-inhibition, NDR1 [2]: 63%; %-inhibition, MELK [3]: 49%; %-inhibition at 1 µmol/L, PKCδ [4]: 34%; %-inhibition at 1 µmol/L, JAK1 [5]: 31%; %-inhibition ACK [6]: 104%; %-inhibition at 1 µmol/L, EPHA6 [7]: 20%; %-inhibition at 1 µmol/L, Erk1 [8]: 3.68%; %-inhibition CHK2 [9]: 96%; %-inhibition at 1 µmol/L, TSSK1 [10]: 101%; %-inhibition, p38β [11]: 3.38%; %-inhibition at 1 µmol/L, PDGFRα [12]: 96%
4 | Cc1cc(Nc2ncc(Cl)c(Nc3ccccc3S(=O)(=O)C(C)C)n2)c(OC(C)C)cc1C1CCNCC1 [ceritinib] | 12% | 15% | 4.5% | 5% | -4.51% | 103% | 29% | 35% | 88% | 101% | 2.35% | 61% | –
5 | O=C(c1ccc(F)c(F)c1Nc1ccc(I)cc1F)N1CC(O)([C@@H]2CCCCN2)C1 [cobimetinib] | 6.62% | 2.53% | 2.53% | -2.12% | -8.53% | 7% | 1.6% | -0.916% | -0.103% | 7% | 4% | 11% | –
6 | C[C@@H](Oc1cc(-c2cnn(C3CCNCC3)c2)cnc1N)c1c(Cl)ccc(F)c1Cl [crizotinib] | – | – | – | – | – | – | – | – | – | – | – | – | %-inhibition at 1 µmol/L, HIPK1 [1, 25]: -7%; %-inhibition, NDR1 [2, 26]: -1.48%; %-inhibition, MELK [3, 27]: 5.47%; %-inhibition at 1 µmol/L, PKCδ [4, 28]: -1.14%; %-inhibition at 1 µmol/L, JAK1 [5, 29]: 47%; %-inhibition ACK [6, 30]: 56%; %-inhibition at 1 µmol/L, EPHA6 [7, 31]: 100%; %-inhibition at 1 µmol/L, Erk1 [8, 32]: -2%; %-inhibition CHK2 [9, 33]: 9%; %-inhibition at 1 µmol/L, TSSK1 [10, 34]: 21%; %-inhibition, p38β [11, 35]: 0.299%; %-inhibition at 1 µmol/L, PDGFRα [12, 36]: 49%
7 | CC(C)(C)c1nc(-c2cccc(NS(=O)(=O)c3c(F)cccc3F)c2F)c(-c2ccnc(N)n2)s1 [dabrafenib] | – | – | – | – | – | – | – | – | – | – | – | – | %-inhibition at 1 µmol/L, HIPK1 [1, 25]: 70%; %-inhibition, NDR1 [2, 26]: -0.891%; %-inhibition, MELK [3, 27]: 82%; %-inhibition at 1 µmol/L, PKCδ [4, 28]: -6%; %-inhibition at 1 µmol/L, JAK1 [5, 29]: 5.7%; %-inhibition ACK [6, 30]: 24%; %-inhibition at 1 µmol/L, EPHA6 [7, 31]: 88%; %-inhibition at 1 µmol/L, Erk1 [8, 32]: -1.62%; %-inhibition CHK2 [9, 33]: 7%; %-inhibition at 1 µmol/L, TSSK1 [10, 34]: 8%; %-inhibition, p38β [11, 35]: 5.3%; %-inhibition at 1 µmol/L, PDGFRα [12, 36]: 63%
8 | C=CC(=O)N1CCC[C@@H](n2nc(-c3ccc(Oc4ccccc4)cc3)c3c(N)ncnc32)C1 [ibrutinib] | 4.26% | 2.65% | 8% | 0.525% | -10% | 73% | 93% | 1.74% | 14% | 9% | 9% | 94% | –
9 | CO[C@@H]1[C@H](N(C)C(=O)c2ccccc2)C[C@H]2O[C@]1(C)n1c3ccccc3c3c4c(c5c6ccccc6n2c5c31)C(=O)NC4 [midostaurin] | 12% | 31% | 95% | – | 97% | 102% | 19% | -0.653% | 36% | 95% | 1.19% | 99% | %-inhibition at 1 µmol/L, PKCδ [4]: 93%
